What was measured:
HeLa LC3-GFP cells = assay: Fluorescence microscopy of GFP-LC3 puncta formation (autophagy); type: cell-based, human; conditions: 1-20 μM for 24 hours, 10 μM for 6, 12 and 24 hours, FIG. 1, 2
Protocol: LC3, a known autophagy indicator, is used to show Griffipavixanthone's ability to induce autophagy in cancer cells and thus provide anti-cancer property. 1×10^5/ml HeLa LC3-GFP cells are seeded in a 35 mm×10 mm culture dish and preincubated for 24 hours before treatment with griffipavixanthone. HeLa LC3-GFP cells are treated with vehicle (control), 1 μM, 5 μM, 10 μM and 20 μM for 24 hours. After treatment of griffipavixanthone, the medium is removed from the dish and 4% methyl aldehyde with 0.3% triton-100 is added for fastening and permeation. The staining solution DAPI is added. Fluorescence of the bound dyes is analyzed using a laser scanning confocal microscope (FV10i, OlympusCorporation, Japan). […] Griffipavixanthone induces autophagy in cervical cancer cells at concentration and time dependent manner.

HeLa cells [1] = assay: MTT cytotoxic assay; type: cell-based; conditions: 0.1-20 μM, 72 hours; FIG. 3
Protocol: Human cervical cancer cell lines HeLa are maintained in DMEM (Invitrogen) supplemented with 10% newborn calf serum (Gibco, Life technologies Corporation, New Zealand), 1% penicillin/streptomycin (Invitrogen). Cells are maintained in a humidified atmosphere containing 5% CO2 at 37° C.
4×10^4/ml HeLa cells are seeded in a 96-well plate and preincubated for 24 hours before treatment with Griffipavixanthone (0.1-20 μM). After 72 hours, 10 μl of MTT solution (5 mg/ml) (Sigma Chemical Company, St. Louis, Mo., USA) are added to each well for 4 hours. The resulting crystals are dissolved in DMSO. The controls are native cells treated with medium only. The spectrophotometric absorbance at 570 nm is measured using a microplate reader (Synergy HT, Bio-Tek Instruments Inc., Winooski, Vt., USA). The percentage cytotoxicity is calculated by the formula: Percentage cytotoxicity (cell death)=[1-(absorbance of experimental wells/absorbance of control wells)]×100%.

HeLa cells [2] = assay: Flow cytometer (FACS, PI staining) analysis of cell death; type: cell-based, human; conditions: 1 and 10 μM, 24 hours; DMEM vs EBSS (serum-free medium); FIG. 4
Protocol: 3×10^5/ml HeLa cells are treated with Griffipavixanthone (1 and 10 μM) for 24 hours. Cells are trypsinized and fixed in ice-cold 100% methanol overnight at 4° C. Cells are washed, incubated with the staining solution (100 μg/ml RNase A and 20 μg/ml PI in Phosphate Buffer Saline (PBS) with 5% NBCS) for 60 minutes, and subjected to fluorescence activated cell sorting (FACS) analysis on a FACScan flowcytometer (BD PharMingen, USA). Data are analyzed using the FlowJo software.

HeLa cells [3] = assay: Western blot analysis of LC3-I, LC3-II and p62 expression; type: cell-based, human; conditions: 0, 1 and 5 μM, 24 hours; FIG. 5
Protocol: 6×10^5/ml HeLa cells are treated with Griffipavixanthone (0, 1 and 5 μM) for 24 hours. Cells are collected and cleavaged by RIPA and PMSF. Proteins are extracted and separated by 12% gel SDS-PAGE, and then are transferred to PVDF. Membranes are blocked with 5% nonfat dry milk in TBST for 0.5 hour. They are incubated and exposed with the respective primary antibodies, testing the content change of protein. The primary antibodies used to detect proteins in autophagy pathway: LC3 (16, 18 kD), p62 (62 kD) and GAPDH (37 kD).

[4] = tested on: HeLa cells xenograft tumor; assay: Inhibition of tumor growth in HeLa xenograft nude mouse model; type: in vivo, nude mice; conditions: intratumor injection 40 ng/kg/day or 80 ng/kg/day once every other day for 18 days; FIG. 6
Protocol: A total of 2×10^6 HeLa cells suspended in 100 μL of saline are inoculated s.c. into the right flank of 4-week-old male nude mice. Drug injections are made once the tumors reach an average volume of about 100 mm^3. Mice are divided randomly into two groups and subjected to intratumor injection of vehicle or Griffipavixanthone (40 ng/kg/day or 80 ng/kg/day) once every other day for 18 days. A total 2 μg/mouse and 4 μg/mouse are given to the two groups of mice in the 18 days treatment. Tumor volume is measured by caliper measurements (V=L×W^2/2). For intratumor injection, Griffipavixanthone is prepared in 0.5% dimethyl sulfoxide, 0.5% tween 80, and 99% PBS. […] The dosage of administered Griffipavixanthone is translated to a human dosage of 3.2 ng/kg/day to 6.4 ng/kg/day with the equation: human equivalent dose=animal dose×animal Km/human Km, where mouse Km factor is 3 and human Km factor is 37 as disclosed in Reagan-Shaw, S., Nihal, M. and Ahmad N., “Dose translation from animal to human studies revisited”, The FASEB Journal, Life Science Forum, disclosure of which is incorporated herein by reference in its entity.

[5] = tested on: leukemia cells, lung cancer cells and fibrosarcoma cells; conditions: Tetrahedron Letters 1998, 39: 9103-9106; cited from earlier work

Structure (SMILES): CC1=CC2c3c(c(O)c(O)c4oc5cc(O)cc(O)c5c(=O)c34)C(c3cc(O)c(O)c4oc5cc(O)cc(O)c5c(=O)c34)C2C(C)(C)C1 (stereo not drawn) [Griffipavixanthone]
- GFP-LC3 puncta formation (percentage of GFP-LC3 positive cells) (HeLa LC3-GFP cells): increases GFP-LC3 puncta formation at concentration and time dependent manner
- HeLa cell viability / cytotoxicity (MTT) (HeLa cells [1]): inhibit HeLa cell lines at concentration dependent manner
- HeLa cell death (FACS) (HeLa cells [2]): induces HeLa cell death significantly in serum-free medium at concentration dependent manner
- Autophagosome accumulation (LC3-I, LC3-II, p62 immunoblot) (HeLa cells [3]): increases autophagosome accumulation and induces autophagy
- Tumor growth (tumor volume) [4]: growth of tumor is inhibited
- In vitro cytotoxicity [5]: high in vitro cytotoxity

Reference: US9339488B2, “Anti-cervical cancer compound and method of use thereof” (Hong Kong Baptist University, priority 2013, dated 2016)
